We go through 3 compounds from PMC7048242 (Cancer letters, 2018).

One data set concerns S100B promoter. Put plainly: HTS cell-based S100B promoter-driven luciferase reporter assay. Further details: species or system human.
Data set [1] deals with S100B. The data set is described as follows: S100B expression in GL261 cells. The data set is classed as cell-based, mouse.
The test system of the next data set is U251 glioma cells. The following applies: 5 μM, U251 (not shown).
For the next data set, the system named is CCL2. The following applies: GL261 cells, 48 h incubation.
The subject of data set [2] is intracranial GL261 gliomas.
Data set [3] concerns tumor-associated myeloid-derived cells.
For data set [4], the system named is tumor-associated leukocytes. The following applies: 30 mg/kg/14 days, LPS 0.5 μg/ml 24 h, q-PCR.
Another data set concerns K-Luc cells. Particulars: K-Luc cell line.
The nature of the next data set: in vivo. The following applies: C57BL/6, mouse, po, 30 mg/kg.
For data set [5], the system named is S100B. Particulars: cited from earlier work.
Setting [6] is: contralateral brain tissue without tumor.

Each structure is given as a SMILES string.

Broadly, the IC50 is the midpoint of a concentration-inhibition curve. A low value points to inhibition by little substance. In the case of `CNCC[C@H](Oc1cccc2ccccc12)c1cccs1` [Duloxetine], the S100B promoter activity entry with S100B promoter (5 μM, luciferase measured 24 h after treatment) is given as “inhibited”. The compound also yielded an IC50 in the data set with S100B promoter (Homo sapiens, U-251) of 10 µM. Further, in the data set with S100B [1] (GL261 cells, low concentrations, 24 h (qPCR), 48 h (Western, ELISA, immunostains)), the S100B expression result is on record as “inhibited”. Further, the Cell proliferation result in the data set with GL261-Luc cells (GL261, Dul concentration < 10 μM) is reported as “not significantly inhibited”. For the same compound, in the data set on GL261-Luc cells (GL261-Luc cells, 24 h incubation), the LD50 amounted to 25.1 µM. The Cytotoxicity result with U251 glioma cells is “without causing cytotoxicity”. Besides, in the data set on CCL2, the CCL2 expression result is given as “inhibited”. Further, the Tumor growth result in data set [2] (i.c. GL261, 14 days treatment started a day after implantation) is reported as “significantly decreased”. Moreover, in [2] (i.c. GL261, high doses (30 mg/kg/14 days), started a day after implantation), the Animal survival entry was “improved”. In addition, the “CCL2 expression in GL261 gliomas (immunohistochemistry)” value in the data set with S100B, RAGE, CCL2 (30 mg/kg, two weeks) was “decrease”. Besides, in the data set with S100B, RAGE, CCL2 (GL261 tumor-bearing mice, 5 or 30 mg/kg/14 days, tumor and peritumoral tissue), the “Total brain S100B, RAGE or CCL2 protein levels” value is “did not significantly inhibit”. In addition, the “Serum S100B and soluble RAGE (sRAGE) levels” value with S100B, RAGE, CCL2 (GL261 tumor-bearing mice, two-week treatment) was “Nor mouse serum S100B and soluble RAGE (sRAGE) levels changed”. Also, in the data set with S100B, RAGE, CCL2 (two-week treatment, tumor cells), the “S100B and RAGE in i.c. GL261 tumors (histochemistry)” value is “effectively inhibited”. Moreover, in [3] (30 mg/kg x 14 days, FACS), the “Proportion of macrophages, monocytic myeloid-derived cells and neutrophils in GL261 gliomas” value was “decreased”. The “Pathway Scores for innate and adaptive immunity processes in tumors” value in data set [3] (Nanostring, GL261 tumors (not in TME)) is “significantly higher”. Moreover, in data set [4], the “Il-1β expression by tumor-associated leukocytes” value was “higher levels”; the “Il-6, Il-10 and Tgf-β expression by tumor-associated leukocytes” value is listed as “lower levels”. Further, the “Cell proliferation in vitro” value with K-Luc cells is “modest inhibitory effect”. For the same compound, in the data set on K-Luc gliomas (K-Luc tumor-bearing mice, daily for 14 days), the “Overall tumor levels of S100B and RAGE” value is given as “did not significantly change”. Besides, the “Growth of K-Luc tumors” value in the data set with K-Luc gliomas (two-week treatment) is recorded as “did not significantly inhibit”. In the data set “in vivo” (GL261 tumor), the concentration at 0.5 h was found to be 48.8 µM, the concentration at 2 h was 70.8 µM, the concentration at 6 h worked out at 24.9 µM and the concentration at 12 h turned out to be 10 µM. Further, in the data set “in vivo” (setting [6]), the concentration at 0.5 h worked out at 36.3 µM, the concentration at 2 h is 65.9 µM, the concentration at 6 h came out at 24.2 µM and the concentration at 12 h worked out at 9.64 µM. Further, in “in vivo” (plasma), the concentration at 0.5 h is 3.04 µM, the concentration at 2 h was 2.12 µM, the concentration at 6 h was found to be 1.28 µM and the concentration at 12 h stood at 0.39 µM.
In the case of `NC[C@H](O)c1ccc(O)c(O)c1` [NE, norepinephrine], in the data set with S100B promoter (NE added every 3 h, luciferase measured in 12 h), the “S100B promoter activity in U251-Luc” value is given as “induced”. In addition, in the data set on S100B [1] (NE added every 3 h, 24 h, Western analysis), the “S100B expression in GL261” value is “induced”.
Regarding `CNCCC(Oc1ccc(C(F)(F)F)cc1)c1ccccc1` (centres unmarked) [fluoxetine], in the data set with S100B [5], the “S100B expression in rat astrocytes in vivo” value is given as “stimulated”.
